Data published in US4474977A, “Amino-alcohol derivatives” (Continental Pharma S.A., priority 1977, dated 1984).
Where two headings read alike, the source gives them in different places.

Columns and labels:
guinea pig ileum = experiment: antispasmodic activity against contractions of guinea pig ileum induced by histamine and acetylcholine; details: Cavia porcellus
Method: The antispasmodic activity of the products according to the invention was tested against contractions of guinea pig ileum, such as induced by histamine and acetylcholine. These tests allow to reveal an antihistaminic activity, an anticholinergic activity or a musculotropic antispasmodic activity. The response to the contracting agent (submaximum concentration)was repeated every 5 minutes before and after injection of increasing doses of the tested products (10^-8 to 10^-5 M). The various doses were added at intervals of 20 minutes or of the time necessary to the development of the maximum effect.
The percentage of inhibition under the influence of tested products was calculated and the theoretical concentration ensuring 50% inhibition was graphically determined for each experience. These values were expressed as -log IC50 (M). The standard value for papaverine was 4.50, namely an effective concentration of 30 μM.

[1] = test system: epididymal fat of the rat; experiment: effect on in vitro induced lipolysis in epididymal fat of the rat; details: in words
Method: The effect on the in vitro induced lipolysis in the epididymal fat of the rat was measured by colorimetry of fatty acids liberated during the tissue incubation under the experimental conditions such as described hereinafter.
Male Sprague-Dawley rats weighing about 250 gr were sacrified by cervical dislocation after a fasting period of 18 hours. The quickly taken-off epididymal fat was placed in a Krebs-Ringer phosphate buffer at pH 7.4, containing 1% albumin.
The tissue was cut into fragments of ±20 mgr, which were dried on filter paper and homogeneously distributed in groups of ±150 mgr weighed with precision. Each group was pre-incubated (15 minutes, 37° C., stirring) in 5 ml of Krebs-Ringer phosphate buffer (pH 7.4) containing 7% of bovine albumin and the product to be tested.
After pre-incubation, 1 ml of the medium is taken off for determining the amount of basic lipolysis. The induction agent in solution in 0.1 ml of phosphate buffer is then added to 4 ml of the remaining medium and after incubation of 90 minutes under the same conditions, liberated fatty acids are titrated in 1 ml of medium according to a variant of the colorimetric method of W. G. Duncombe (Biochem. J., 83, 6P, 1962; Biochem. J., 88, 7-10, 1963; Clin. Chem. Acta, 9, 122-125, 1964).

[2] = test system: femoral arterial circulation; experiment: peripheral vasodilator activity on anaesthetized dog, femoral arterial perfusion pressure; assay type: in vivo; details: 30 μg/kg injected in femoral perfusion (some also at other doses); in words
Method: The peripheral vasodilator activity of the products according to the invention was measured on anaesthetized dog at the level of the femoral arterial circulation. To this end, the femoral artery the collaterals of which were ligaturated was perfused with a constant flow rate of blood taken from aorta. Thus the perfusion pressure measured at the level of the femoral artery, varied as a function of the resistance of perfused area. The tested products and the corresponding solvents were directly injected in the system at the dose of 30 μg/kg. The blood circulation rate being maintained constant, a vasodilation was thus measured by a decrease of the perfusion pressure. The latter is rated in comparison with the action of papaverine considered as standard and injected once per group of 4 products.
When being of interest, the products were tested at other doses under the same conditions. The vasodilation activity was rated as follows:
+: 1/3 of the papaverine activity
++: 2/3 of the papaverine activity
+++: activity equal to that of papaverine (i.e. 30 to 40 mm Hg)
++++: activity higher than that of papaverine.

[3] = test system: human platelet rich plasma (PRP); experiment: blood platelet aggregation (Born method) in human platelet rich plasma; assay type: cell-based; details: 24 μl of 2×10^-2 M solution added to 300 μl PRP; induced by thrombofax or collagen; in words
Method: The blood platelet aggregation was studied according to the Born Method (J. Physiol., 168, 178, 1963). Nine volumes of human venous blood were taken off and anticoagulated with one volume of a trisodium citrate solution (0.129 M). The blood was centrifuged at 200 g for 10 minutes (22° C.) for preparing the platelet rich plasma (PRP). Methanol or acetone was used in order to obtain 2×10^-2 M solutions of the various involved products, 24 μl of each product were added to 300 μl of PRP. For controls, 24 μl of the various hereinabove mentioned solvents were used. The products were pre-incubated in the presence of PRP for 4 minutes at 37° C. under continuous stirring (1100 rpm). After this incubation period, the platelet aggregation was induced by addition of 100 μl of thrombofax or collagen. The aggregation phenomenon was quantified by graphical determination of the aggregation amplitude (A).
The inhibition percentage of the agglutination amplitude was calculated as follows:
A (% inhibition): 100-(Ax /Ao)×100
Ax : value of aggregation amplitude in the presence of examined products
Ao : value of aggregation amplitude for controls

[4] = test system: spontaneously hypertensive rats; experiment: antihypertensive activity, oral administration to non-anesthetized spontaneously hypertensive rats, systolic arterial pressure (plethysmographic); assay type: in vivo, rat; details: 60 mgr/kg oral (some also at other doses); in words
Method: Their antihypertensive activity was tested by oral administration to non-anesthetized, spontaneously hypertensive rats, on which the systolic arterial pressure is measured at the level of the median coccygeal artery by means of a plethysmographic method (J. Roba, G. Lambelin, A. F. De Schaepdryver, Arch. int. Pharmacodyn., 200, 182, 1972). The arterial pressure was measured every 30 minutes from two hours before to three hours after oral administration of 60 mgr/kg of the tested products or of a placebo (1% tragacanth gum mucilage). When being of interest, the products were tested at other doses under similar conditions. Only rats having a systolic pressure of 180 to 220 mm Hg were used. Two rats were used for each product. The treatments were made without the knowledge of the person making the measures. The antihypertensive effects were rated as follows:
+: reduction of 10 to 20 mm Hg
++: reduction of 20 to 30 mm Hg
+++: reduction of 30 to 50 mm Hg
++++: reduction >50 mm Hg

[5] = contractions induced by histamine and acetylcholine, 10^-8 to 10^-5 M, read-out: -log IC50 (M), antispasmodic activity (converted)

Question: Which IC50 (guinea pig ileum; 50% inhibition of contractions, converted from -log IC50, read-out: effective concentration / concentration corresponding to -log IC50 (converted)) does the source give for CCCCCCCCNC(C)C(OC(=O)C(C)(C)C)c1ccc(SC(C)C)cc1 (centres unmarked) [Compound 1] here?
Answer: < 1e-06 M

Question: And the IC50 (guinea pig ileum; [5])?
Answer: < 1e-06 M

Question: What about the “effect on induced lipolysis” value [1] of the same molecule?
Answer: active

Question: How did the “peripheral vasodilator activity (compared with papaverine)” value [2] turn out when CCCCCCCCNC(C)C(OC(C)=O)c1ccc(SC(C)C)cc1.Cl (centres unmarked) [Compound 3, 1-Acetyloxy-1-(4-isopropylthiophenyl)-2-n-octylaminopropane hydrochloride] was run?
Answer: at least equal to that of papaverine

Question: What about the IC50 (guinea pig ileum; read-out: -log IC50 (M), antispasmodic activity (converted)) of the same molecule?
Answer: < 1e-06 M

Question: What about the IC50 (guinea pig ileum; read-out: effective concentration / concentration corresponding to -log IC50 (converted)) of the same molecule?
Answer: < 1e-06 M

Question: And the anti-aggregation effect [3]?
Answer: strong anti-aggregation effect

Question: For CCCCCCCCNC(C)C(OC(=O)CC(C)(C)C)c1ccc(SC(C)C)cc1.Cl (centres unmarked) [Compound 30, 1-neopentylcarbonyloxy-1-(4-isopropylthiophenyl)-2-n-octylaminopropane (hydrochloride)], which antihypertensive activity [4] is on record?
Answer: suitable antihypertensive activity

Question: And the IC50 (guinea pig ileum; [5])?
Answer: < 1e-06 M

Question: What about the anti-aggregation effect [3] of the same molecule?
Answer: strong anti-aggregation effect

Question: How did the “peripheral vasodilator activity (compared with papaverine)” value [2] turn out when CCCCCCCCNC(C)C(O)c1ccc(OC)cc1 (centres unmarked) [Compound 74, 1-(4-methoxyphenyl)-2-n-octylamino-1-propanol] was run?
Answer: at least equal to that of papaverine

Question: And the “effect on induced lipolysis” value [1]?
Answer: active

Question: With CCCCCCCCNC(C)C(O)c1ccc(C)cc1 (centres unmarked) [Compound 75] as the molecule, how does the “effect on induced lipolysis” value [1] read?
Answer: active

Question: CCCCCCCCNC(C)C(O)c1ccccc1 (centres unmarked) [Compound 76] was tested. Which “effect on induced lipolysis” value [1] did it give?
Answer: active
